Legend:
[1] = Inhibition of c-MYC expression in human JJN3R cells measured after 4 hrs; type: functional, cell-based; settings: JJN-3R
[2] = Antitumour activity against human JJN3R cells measured after 72 hrs by MTS assay; type: functional, cell-based; settings: JJN-3R
[3] = Metabolic stability in human liver microsomes assessed as parent compound remaining at 0.5 uM after 10 mins; type: ADME, Microsome; settings: read-out: Stability
[4] = Metabolic stability in mouse liver microsomes assessed as parent compound remaining at 0.5 uM after 10 mins; type: ADME, Microsome; settings: read-out: Stability
[5] = Permeability coefficient of the compound by PAMPA; type: ADME; settings: read-out: permeability
[6] = Permeability coefficient across apical to basolateral side in human Caco-2 cells; type: ADME, cell-based; settings: read-out: permeability
[7] = Permeability coefficient across basolateral to apical side in human Caco-2 cells; type: ADME, cell-based; settings: read-out: permeability
[8] = Cmax in mouse at 30 mg/kg, po; type: ADME, organism-based; set-up: dose 30 mg/kg, route po; settings: in vivo
[9] = AUC (0 to 7 hrs) in mouse at 30 mg/kg, po; type: ADME, organism-based; set-up: time < 7 hr, dose 30 mg/kg, route po; settings: in vivo
[10] = target: Bromodomain-containing protein 4 (Homo sapiens, UniProt O60885); assay: Inhibition of human BRD4 (1 to 477 residues) measured after 60 mins by TR-FRET assay
[11] = Efflux ratio of permeability in human Caco-2 cells; type: ADME, cell-based
[12] = target: Bromodomain-containing protein 2 (Homo sapiens, UniProt P25440); assay: Inhibition of human BRD2 measured by TR-FRET assay
[13] = target: Bromodomain-containing protein 3 (Homo sapiens, UniProt Q15059); assay: Inhibition of human BRD3 measured by TR-FRET assay
Cytochrome P450 1A2 = Cytochrome P450 1A2 (Homo sapiens, UniProt P05177); assay: Inhibition of CYP1A2 (unknown origin); type: ADME
Cytochrome P450 2C9 = Cytochrome P450 2C9 (Homo sapiens, UniProt P11712); assay: Inhibition of CYP2C9 (unknown origin); type: ADME
Cytochrome P450 2C19 = Cytochrome P450 2C19 (Homo sapiens, UniProt P33261); assay: Inhibition of CYP2C19 (unknown origin); type: ADME
Cytochrome P450 2D6 = Cytochrome P450 2D6 (Homo sapiens, UniProt P10635); assay: Inhibition of CYP2D6 (unknown origin); type: ADME
Cytochrome P450 3A4 = Cytochrome P450 3A4 (Homo sapiens, UniProt P08684); assay: Inhibition of CYP3A4 (unknown origin); type: ADME
[14] = target: Voltage-gated inwardly rectifying potassium channel KCNH2 (Homo sapiens, UniProt Q12809); assay: Inhibition of human ERG by flux assay
Chain of Voltage-gated inwardly rectifying potassium channel KCNH2 (Q12809 whole entry): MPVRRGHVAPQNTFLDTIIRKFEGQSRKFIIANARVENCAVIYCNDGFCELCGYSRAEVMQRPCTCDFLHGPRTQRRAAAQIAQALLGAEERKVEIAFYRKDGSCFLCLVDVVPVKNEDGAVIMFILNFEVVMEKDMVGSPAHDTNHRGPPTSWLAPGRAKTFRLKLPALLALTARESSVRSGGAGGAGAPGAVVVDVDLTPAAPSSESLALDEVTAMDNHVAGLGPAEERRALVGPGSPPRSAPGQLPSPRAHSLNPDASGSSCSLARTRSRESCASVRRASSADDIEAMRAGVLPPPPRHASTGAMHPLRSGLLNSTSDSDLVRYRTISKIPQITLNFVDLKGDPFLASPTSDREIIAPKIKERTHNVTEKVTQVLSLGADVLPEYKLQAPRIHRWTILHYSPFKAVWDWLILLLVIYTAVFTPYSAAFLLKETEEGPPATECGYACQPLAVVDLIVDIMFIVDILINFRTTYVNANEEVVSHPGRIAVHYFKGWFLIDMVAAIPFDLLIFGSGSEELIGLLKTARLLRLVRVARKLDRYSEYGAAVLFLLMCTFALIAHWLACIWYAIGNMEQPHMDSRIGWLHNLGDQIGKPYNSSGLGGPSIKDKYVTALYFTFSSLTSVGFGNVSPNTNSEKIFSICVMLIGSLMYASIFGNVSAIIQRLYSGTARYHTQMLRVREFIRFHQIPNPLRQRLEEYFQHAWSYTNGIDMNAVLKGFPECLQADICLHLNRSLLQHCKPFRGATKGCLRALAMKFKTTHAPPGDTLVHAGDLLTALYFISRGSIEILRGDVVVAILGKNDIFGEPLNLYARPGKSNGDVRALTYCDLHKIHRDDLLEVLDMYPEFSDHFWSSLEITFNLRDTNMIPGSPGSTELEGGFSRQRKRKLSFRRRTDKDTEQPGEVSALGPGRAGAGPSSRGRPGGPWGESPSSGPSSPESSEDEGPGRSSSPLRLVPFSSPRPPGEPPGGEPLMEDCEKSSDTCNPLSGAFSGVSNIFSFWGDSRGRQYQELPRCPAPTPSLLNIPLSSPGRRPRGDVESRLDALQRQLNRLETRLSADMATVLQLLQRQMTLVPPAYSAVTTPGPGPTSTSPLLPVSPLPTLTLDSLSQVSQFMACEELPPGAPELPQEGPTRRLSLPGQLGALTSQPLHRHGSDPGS

Chain of Bromodomain-containing protein 3 (Q15059 whole entry): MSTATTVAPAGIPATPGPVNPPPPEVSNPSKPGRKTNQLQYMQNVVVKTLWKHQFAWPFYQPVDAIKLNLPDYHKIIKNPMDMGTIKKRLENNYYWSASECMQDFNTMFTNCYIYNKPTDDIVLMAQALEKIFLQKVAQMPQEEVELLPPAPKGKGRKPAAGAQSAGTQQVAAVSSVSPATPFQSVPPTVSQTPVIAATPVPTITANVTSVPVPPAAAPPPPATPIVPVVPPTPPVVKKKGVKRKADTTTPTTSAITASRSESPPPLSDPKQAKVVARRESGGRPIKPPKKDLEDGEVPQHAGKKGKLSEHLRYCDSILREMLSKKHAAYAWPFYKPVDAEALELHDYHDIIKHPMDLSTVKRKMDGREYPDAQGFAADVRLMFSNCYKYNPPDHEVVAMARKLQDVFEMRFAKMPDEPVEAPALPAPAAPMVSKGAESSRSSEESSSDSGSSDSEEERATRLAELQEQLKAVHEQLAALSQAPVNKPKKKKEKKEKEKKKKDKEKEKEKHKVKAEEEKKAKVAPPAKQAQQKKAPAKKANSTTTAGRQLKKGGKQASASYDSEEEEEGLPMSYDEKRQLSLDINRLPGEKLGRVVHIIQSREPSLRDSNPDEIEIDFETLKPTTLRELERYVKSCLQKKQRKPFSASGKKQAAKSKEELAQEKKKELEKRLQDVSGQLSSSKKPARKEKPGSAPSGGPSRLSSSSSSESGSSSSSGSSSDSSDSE
Chain of Cytochrome P450 2C9 (P11712 whole entry): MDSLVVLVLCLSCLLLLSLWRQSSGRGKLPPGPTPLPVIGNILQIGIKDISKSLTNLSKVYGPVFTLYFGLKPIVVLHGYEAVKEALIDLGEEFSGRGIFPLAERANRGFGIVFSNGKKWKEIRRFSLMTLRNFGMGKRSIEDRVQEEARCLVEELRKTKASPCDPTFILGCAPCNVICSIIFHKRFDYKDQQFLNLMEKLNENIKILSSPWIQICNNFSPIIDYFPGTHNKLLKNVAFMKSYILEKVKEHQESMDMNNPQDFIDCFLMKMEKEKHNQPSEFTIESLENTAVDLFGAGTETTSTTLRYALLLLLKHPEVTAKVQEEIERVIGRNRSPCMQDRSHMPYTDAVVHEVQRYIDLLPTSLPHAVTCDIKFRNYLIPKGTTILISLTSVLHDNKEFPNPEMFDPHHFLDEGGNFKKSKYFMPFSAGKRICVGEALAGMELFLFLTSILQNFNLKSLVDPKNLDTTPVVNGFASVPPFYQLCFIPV
Chain of Cytochrome P450 3A4 (P08684 whole entry): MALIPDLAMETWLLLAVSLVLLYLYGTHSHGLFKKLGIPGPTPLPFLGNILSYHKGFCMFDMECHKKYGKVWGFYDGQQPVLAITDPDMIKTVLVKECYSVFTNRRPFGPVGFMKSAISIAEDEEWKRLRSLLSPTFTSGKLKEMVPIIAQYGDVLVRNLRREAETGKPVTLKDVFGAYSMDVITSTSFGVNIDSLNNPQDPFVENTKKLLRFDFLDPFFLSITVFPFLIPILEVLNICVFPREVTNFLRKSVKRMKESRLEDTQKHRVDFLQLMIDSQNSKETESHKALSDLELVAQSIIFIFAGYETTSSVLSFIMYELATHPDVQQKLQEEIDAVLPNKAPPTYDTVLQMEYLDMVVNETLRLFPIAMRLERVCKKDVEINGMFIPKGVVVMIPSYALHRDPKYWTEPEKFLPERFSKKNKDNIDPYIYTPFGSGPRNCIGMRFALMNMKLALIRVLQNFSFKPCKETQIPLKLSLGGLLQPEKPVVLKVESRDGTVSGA
Chain of Cytochrome P450 1A2 (P05177 whole entry): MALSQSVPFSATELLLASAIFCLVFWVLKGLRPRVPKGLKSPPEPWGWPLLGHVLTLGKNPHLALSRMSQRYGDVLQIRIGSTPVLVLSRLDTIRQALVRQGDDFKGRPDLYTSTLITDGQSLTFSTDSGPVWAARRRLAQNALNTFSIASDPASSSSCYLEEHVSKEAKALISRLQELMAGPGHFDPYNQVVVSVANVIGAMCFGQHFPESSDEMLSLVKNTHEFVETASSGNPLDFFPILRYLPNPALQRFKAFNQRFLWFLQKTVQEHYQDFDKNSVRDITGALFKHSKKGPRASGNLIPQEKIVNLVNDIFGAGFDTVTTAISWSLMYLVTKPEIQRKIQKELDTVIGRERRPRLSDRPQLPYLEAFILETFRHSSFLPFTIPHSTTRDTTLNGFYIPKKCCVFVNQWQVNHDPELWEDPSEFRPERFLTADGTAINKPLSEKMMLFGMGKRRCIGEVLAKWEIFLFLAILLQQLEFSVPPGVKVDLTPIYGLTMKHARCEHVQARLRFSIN
Chain of Cytochrome P450 2C19 (P33261 whole entry): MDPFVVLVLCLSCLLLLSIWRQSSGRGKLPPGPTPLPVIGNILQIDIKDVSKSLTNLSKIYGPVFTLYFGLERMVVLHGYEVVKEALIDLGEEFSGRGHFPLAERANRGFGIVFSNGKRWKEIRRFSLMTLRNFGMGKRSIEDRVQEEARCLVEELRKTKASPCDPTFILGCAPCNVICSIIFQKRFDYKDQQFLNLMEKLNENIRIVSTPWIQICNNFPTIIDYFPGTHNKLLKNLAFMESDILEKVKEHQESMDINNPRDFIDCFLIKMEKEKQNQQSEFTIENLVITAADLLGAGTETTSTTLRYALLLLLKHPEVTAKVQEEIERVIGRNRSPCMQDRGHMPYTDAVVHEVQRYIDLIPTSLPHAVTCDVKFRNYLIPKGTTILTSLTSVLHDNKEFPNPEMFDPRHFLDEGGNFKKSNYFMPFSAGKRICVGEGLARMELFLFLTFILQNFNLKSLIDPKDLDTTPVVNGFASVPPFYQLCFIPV
Chain of Cytochrome P450 2D6 (P10635 whole entry): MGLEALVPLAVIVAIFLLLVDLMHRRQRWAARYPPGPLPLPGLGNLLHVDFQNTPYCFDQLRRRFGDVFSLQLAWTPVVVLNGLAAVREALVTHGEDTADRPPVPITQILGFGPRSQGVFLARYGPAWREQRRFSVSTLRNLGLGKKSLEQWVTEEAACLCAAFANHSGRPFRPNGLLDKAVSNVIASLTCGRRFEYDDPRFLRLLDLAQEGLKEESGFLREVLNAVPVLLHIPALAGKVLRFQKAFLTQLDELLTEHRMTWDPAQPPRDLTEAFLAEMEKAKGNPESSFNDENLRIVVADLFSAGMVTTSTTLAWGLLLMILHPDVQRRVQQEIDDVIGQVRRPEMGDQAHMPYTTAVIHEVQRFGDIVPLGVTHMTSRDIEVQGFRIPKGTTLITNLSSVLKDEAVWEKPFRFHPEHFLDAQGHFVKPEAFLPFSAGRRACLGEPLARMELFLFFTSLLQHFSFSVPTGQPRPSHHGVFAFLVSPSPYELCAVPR

Cc1noc(C)c1-c1cc(C(N)=O)c2c3ccc(C(C)(C)O)cc3n(Cc3ccccc3)c2c1
IC50 [1]: 6.2 nM
IC50 [2]: 35 nM
remaining at 10 min, 0.5 µM [3]: 58%
remaining at 10 min, 0.5 µM [4]: 62%
Papp [5]: 84.9 ×10⁻⁶ cm/s
Papp A→B [6]: 7.6 ×10⁻⁶ cm/s
Papp B→A [7]: 20.2 ×10⁻⁶ cm/s
Cmax [8]: 7.1 µM
AUC(0-t) at 7 h [9]: 27.1 µM·h

Cc1noc(C)c1-c1cc(C(N)=O)c2c3cc(C(=O)N4C[C@@H](C)O[C@@H](C)C4)ccc3n(Cc3ccccc3)c2c1
IC50 [10]: 4.2 nM
IC50 [1]: 13 nM
IC50 [2]: 38 nM
remaining at 10 min, 0.5 µM [3]: 9%
remaining at 10 min, 0.5 µM [4]: 19%
Papp [5]: 80.9 ×10⁻⁶ cm/s

Cc1noc(C)c1-c1cc(C(N)=O)c2c3cc(C(C)(C)O)ccc3n(Cc3ccccc3)c2c1
IC50 [10]: 4.5 nM
IC50 [1]: 23 nM
IC50 [2]: 95 nM
Papp [5]: 74.9 ×10⁻⁶ cm/s

Cc1noc(C)c1-c1cc(C(N)=O)c2c3ccc(C(C)(C)O)cc3n([C@@H](c3ccccc3)C3CCOCC3)c2c1
IC50 [10]: 5.4 nM
IC50 [1]: 10 nM
IC50 [2]: 46 nM
remaining at 10 min, 0.5 µM [3]: 24%
remaining at 10 min, 0.5 µM [4]: 0%
Papp [5]: 58.4 ×10⁻⁶ cm/s

Cc1noc(C)c1-c1cc(C(N)=O)c2c3ccc(C(C)(C)O)cc3n(CC3CCOCC3)c2c1
IC50 [10]: 9.5 nM
IC50 [1]: 23 nM
IC50 [2]: 128 nM
remaining at 10 min, 0.5 µM [3]: 75%
remaining at 10 min, 0.5 µM [4]: 55%
Papp [5]: 40.2 ×10⁻⁶ cm/s

Cc1noc(C)c1-c1cc(C(N)=O)c2c3ccc(C(C)(C)O)cc3n([C@H](c3ccccc3)C3CCOCC3)c2c1
IC50 [10]: 1 nM
IC50 [1]: 0.9 nM
IC50 [2]: 3.1 nM
remaining at 10 min, 0.5 µM [3]: 52%
remaining at 10 min, 0.5 µM [4]: 20%
Papp [5]: 67.1 ×10⁻⁶ cm/s
Papp A→B [6]: 3.4 ×10⁻⁶ cm/s
Papp B→A [7]: 36.4 ×10⁻⁶ cm/s
Cmax [8]: 0.4 µM
AUC(0-t) at 7 h [9]: 1 µM·h

Cc1nocc1-c1cc(C(N)=O)c2c(c1)c1ccc(C(=O)N3C[C@@H](C)O[C@@H](C)C3)cc1n2CC1CC1
IC50 [10]: 131 nM
IC50 [1]: 268 nM
IC50 [2]: 2960 nM

Cc1noc(C)c1-c1cc(C(N)=O)c2c3ccc(C(C)(C)O)cc3n([C@H](c3ccc(F)cc3)C3CCOCC3)c2c1
IC50 [10]: 1.9 nM
IC50 [1]: 0.4 nM
IC50 [2]: 3.1 nM
remaining at 10 min, 0.5 µM [3]: 52%
remaining at 10 min, 0.5 µM [4]: 33%
Papp [5]: 70.2 ×10⁻⁶ cm/s
Cmax [8]: 0.9 µM
AUC(0-t) at 7 h [9]: 4.3 µM·h
efflux ratio [11]: 6.1

Cc1noc(C)c1-c1cc(C(N)=O)c2[nH]c3cc(C(=O)N4CCOCC4)ccc3c2c1
IC50 [10]: 712 nM
IC50 [1]: 1160 nM
IC50 [2]: > 2500 nM

Cc1nnn(C)c1-c1cc(C(N)=O)c2c(c1)c1ccc(C(=O)N3C[C@@H](C)O[C@@H](C)C3)cc1n2CC1CC1
IC50 [10]: 35 nM
IC50 [1]: 291 nM
IC50 [2]: 796 nM

Cc1noc(C)c1-c1cnc2c3ccc(C(C)(C)O)cc3n([C@H](c3ccccc3)C3CCOCC3)c2c1
IC50 [10]: 1.9 nM
IC50 [1]: 1.5 nM
IC50 [2]: 8.4 nM
remaining at 10 min, 0.5 µM [3]: 54%
remaining at 10 min, 0.5 µM [4]: 42%
Papp [5]: 98.4 ×10⁻⁶ cm/s
Papp A→B [6]: 26.3 ×10⁻⁶ cm/s
Papp B→A [7]: 22.9 ×10⁻⁶ cm/s
Cmax [8]: 9.2 µM
AUC(0-t) at 7 h [9]: 45.7 µM·h
efflux ratio [11]: 0.9
IC50 [12]: 1.7 nM
IC50 [13]: 1.9 nM
IC50 (Cytochrome P450 1A2): > 20000 nM
IC50 (Cytochrome P450 2C9): 4100 nM
IC50 (Cytochrome P450 2C19): 1500 nM
IC50 (Cytochrome P450 2D6): > 20000 nM
IC50 (Cytochrome P450 3A4): > 20000 nM
IC50 [14]: 51000 nM

Cc1noc(C)c1-c1cc(C(N)=O)c2c(c1)c1ccc(C(=O)N3C[C@@H](C)O[C@@H](C)C3)cc1n2CC1CC1
IC50 [10]: 23 nM
IC50 [1]: 51 nM
IC50 [2]: 525 nM

Cc1noc(C)c1-c1cc(C(N)=O)c2c(c1)c1ccc(C(=O)N3CCOCC3)cc1n2CC1CC1
IC50 [10]: 39 nM
IC50 [1]: 93 nM
IC50 [2]: 414 nM

Cc1n[nH]c(C)c1-c1cc(C(N)=O)c2c(c1)c1ccc(C(=O)N3C[C@@H](C)O[C@@H](C)C3)cc1n2CC1CC1
IC50 [10]: 530 nM
IC50 [1]: 1240 nM
IC50 [2]: 7600 nM

Cc1noc(C)c1-c1cc(C(N)=O)c2c3ccc(C(C)(C)O)cc3n(C(c3ccccc3)c3ccccc3)c2c1
IC50 [10]: 1.5 nM
IC50 [1]: 3.9 nM
IC50 [2]: 11 nM
remaining at 10 min, 0.5 µM [3]: 13%
remaining at 10 min, 0.5 µM [4]: 26%
Papp [5]: 68.2 ×10⁻⁶ cm/s

Cc1oncc1-c1cc(C(N)=O)c2c(c1)c1ccc(C(=O)N3C[C@@H](C)O[C@@H](C)C3)cc1n2CC1CC1
IC50 [10]: 292 nM
IC50 [1]: 645 nM
IC50 [2]: 3530 nM

Cc1noc(C)c1-c1cc(C(N)=O)c2c3cc(C(=O)N4C[C@@H](C)O[C@@H](C)C4)ccc3n(CC3CC3)c2c1
IC50 [10]: 69 nM
IC50 [1]: 259 nM
IC50 [2]: 422 nM
